Measured values published in patent US20190225650A1, “PEPTIDOMIMETIC MACROCYCLES AND USE THEREOF IN REGULATING HIF1ALPHA” (AILERON THERAPEUTICS, INC., priority 2013, published 2019).
Values belong to the molecule of their own block, whether it stands above or below them. Bridge positions count the residues as written; N and C are the ends. Square brackets hold non-standard residues; d marks the D form. Peptide text beside a SMILES is read from it. R8 = C=CCCCCCC[C@@](C)(N)C(=O)O; S5 = C=CCCC[C@](C)(N)C(=O)O; Nle = CCCC[C@H](N)C(=O)O

Assays:
[1] = target: T1, flag-tagged HIF1α (AA 786-826) / His6-tagged p300 (AA 323-423) complex (Homo sapiens, UniProt Q09472); experiment: HIF1α p300 displacement assay (TR FRET, +CHAPS); type: binding; settings: read-out: IC50 (nM) (HIF1α_p300 Displacement + CHAPS)
T1 construct: His6-tagged p300 (AA 323-423); made in house; host or cells: E. coli (pETDuet vector)
Procedure, shortened: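 In this TR-FRET displacement format, peptides compete HIF1α C-terminal transactivation domain off p300-CH. They were preincubated 1 h at room temperature with 300 nM complex in HEPES pH 7.4/NaCl buffer with 7.5 mM CHAPS and 1 mM DTT. Anti-His-D2 (4 nM) and anti-Flag-K (0.5 μM) followed for 2 h, and a one-site fit of the fluorescence ratio gave IC50.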

[2] = system: HRE-bla ME-180 cells; experiment: Reporter gene assay (HRE-bla ME-180 HIF reporter, GeneBLAzer); type: cell-based, human; settings: for EC50: 24 hour normoxia
Procedure, shortened: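 A FRET β-lactamase readout of HIF transcription was used. After compound treatment in 0.3% DMSO/media under normoxic conditions, 20 μl of 6× LiveBLAzer-FRET B/G (CCF4-AM) substrate was added. Plates sat 3 hr at room temperature in the dark and were read at 409 Ex/460Em and 409Ex/530Em on a Synergy 2. Inhibition was compared against DMSO vehicle controls, with chetomin as positive control.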

[3] = system: HRE-bla ME-180 cells; experiment: Cell proliferation assay (viability, MTT, 1% FBS); type: cell-based, human
Procedure, shortened: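 Viable cell number was measured with the CellTiter 96 (MTT) kit after compounds were applied for a 16 h normoxic (21% O2) pretreatment, followed by further normoxic or hypoxic (1% O2) culture. Cells: 2×10^4 ME-180 per well, Opti-MEM + 1% FBS, 0.5% DMSO vehicle.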

[4] = target: T2, His6-tagged p300 (AA 323-423) (UniProt Q09472 323-423); experiment: TR-FRET HIF1a/p300 displacement; grade = IC50 >700 nM
T2 construct: range 323-423; also called p300-CH; not shown: His6 tag
Experimental: The ability of peptides to displace HIF1α c-terminal trans-activation domain from p300-CH was measured by a TR FRET assay. […] The complex was diluted to 300 nM final in complete assay media and competitor peptides were added. The complete assay media contained 150 mM NaCl (Sigma +S5150 or equivalent), 20 mM HEPES pH 7.4 (Boston Bioproducts, Ashland, Mass.; #BB-2076), 7.5 mM CHAPS (Thermo #28300 or equivalent), and 1 mM DTT. Protein and peptide were incubated at room temperature for 1 hour before the addition of anti-Flag-K and anti-6×HIS-D2 (CisBio, Bedford Mass.) HTRF reconstitution buffer (50 mM Phosphate pH 7, 0.8 Potassium Flouride, BSA 0.2%)¹ to a final concentration of 0.5 μM and 4 nM respectively. The reaction continued for an additional two hours at room temperature. The reaction was read on a TECAN F500 plate reader with settings recommended by CisBio. The ratio of donor to acceptor fluorescence was calculated. The resulting data was analyzed with Graphpad Prism 5.0. IC50 values were calculated for both proteins using the One Site Fit-LogIC50 equation and presented in the column “IC₅₀ (nM) (HIF1α_p300 Displacement+CHAPS)” of Table 6. ¹ Cisbio USA, Bedford, Mass.; 61HISDLB (lot 007A), 61FG2KLB (024A), HTRF Buffer (62RB3RDF)

T1 sequence (Q09472 323-423, one chain of several): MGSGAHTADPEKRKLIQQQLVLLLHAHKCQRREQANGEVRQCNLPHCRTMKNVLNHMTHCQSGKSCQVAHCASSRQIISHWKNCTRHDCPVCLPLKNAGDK
T2 sequence (Q09472 323-423 limits assumed): as the sequence (Q09472 323-423, one chain of several) above

Molecule: CCCC[C@H](NC(=O)[C@H](C)NC(=O)[C@]1(C)CCCC=CCCCCCC[C@@](C)(NC(=O)[C@H](CCC(=O)O)NC(=O)[C@H](CC(=O)O)NC(=O)[C@@H](NC(=O)[C@H](Cc2ccccc2)NC(C)=O)[C@@H](C)CC)C(=O)N[C@@H](C(C)C)C(=O)N[C@@H](CC(C)C)C(=O)N[C@@H](CCCC)C(=O)N[C@@H](CO)C(=O)N[C@@H](CC(C)C)C(=O)N[C@@H](C(C)C)C(=O)N1)C(=O)N[C@@H](C)C(=O)N[C@@H](CC(C)C)C(N)=O [SP-196] (Ac-FIDE[R8]VL[Nle]SLV[S5]A[Nle]AL-NH2; staple 5-12)
IC50 [1]: 200 to 400 nM | 18 h Avg % max inhibition at top conc (HIF Rptr-24 hrs normoxia) (μM) [2]: ++++ (≥50: ++++) | EC50 [2]: ≤ 5 µM | Viability 1% FBS AVG (MTT V3-24 hr Normoxia) (μM) [3]: ++++ (≥30: ++++)

Molecule: CCCC[C@H](NC(=O)[C@H](CCC(=O)O)NC(=O)[C@@H](NC(=O)[C@@H](NC(=O)[C@H](CC(C)C)NC(=O)[C@]1(C)CCCC=CCCC[C@](C)(NC(=O)[C@H](CCCNC(=N)N)NC(=O)[C@H](CC(=O)O)NC(=O)[C@@H](NC(=O)[C@H](Cc2ccccc2)NC(C)=O)[C@@H](C)CC)C(=O)N[C@@H](C(C)C)C(=O)N[C@@H](CC(C)C)C(=O)N[C@@H](CCCC)C(=O)N1)C(C)C)[C@@H](C)CC)C(=O)N[C@@H](C)C(=O)N[C@@H](CC(C)C)C(N)=O [SP-156] (Ac-FIDR[S5]VL[Nle][S5]LVIE[Nle]AL-NH2; staple 5-9)
IC50 [1]: 200 to 400 nM | 18 h Avg % max inhibition at top conc (HIF Rptr-24 hrs normoxia) (μM) [2]: ++ (≤10 but <25: ++) | EC50 [2]: > 30 µM | Viability 1% FBS AVG (MTT V3-24 hr Normoxia) (μM) [3]: ++++ (≥30: ++++)

Molecule: CCCC[C@H](NC(=O)[C@@]1(C)CCCC=CCCCC2(CCCC=CCCC[C@](C)(NC(=O)[C@H](CCC(=O)O)NC(=O)[C@H](CC(=O)O)NC(=O)[C@@H](NC(=O)[C@H](Cc3ccccc3)NC(C)=O)[C@@H](C)CC)C(=O)N[C@@H](C(C)C)C(=O)N[C@@H](CC(C)C)C(=O)N[C@@H](CCC(=O)O)C(=O)N2)C(=O)N[C@@H](CC(C)C)C(=O)N[C@@H](C(C)C)C(=O)N[C@@H]([C@@H](C)CC)C(=O)N1)C(=O)N[C@@H](C)C(=O)N[C@@H](CC(C)C)C(N)=O (stereo partly drawn) [SP-205]
IC50 [1]: 200 to 400 nM | 18 h Avg % max inhibition at top conc (HIF Rptr-24 hrs normoxia) (μM) [2]: + (<10: +) | EC50 [2]: > 30 µM | Viability 1% FBS AVG (MTT V3-24 hr Normoxia) (μM) [3]: ++++ (≥30: ++++)

Molecule: CCCC[C@H](NC(=O)[C@H](CCC(=O)O)NC(=O)[C@@H](NC(=O)[C@@H](NC(=O)[C@H](CC(C)C)NC(=O)[C@]1(C)CCCC=CCCC[C@](C)(NC(=O)[C@H](CCC(=O)O)NC(=O)[C@H](CC(=O)O)NC(=O)[C@@H](NC(=O)[C@H](Cc2ccccc2)NC(C)=O)[C@@H](C)CC)C(=O)N[C@@H]([C@@H](C)O)C(=O)N[C@@H](CC(C)C)C(=O)N[C@@H](CCCC)C(=O)N1)C(C)C)[C@@H](C)CC)C(=O)N[C@@H](C)C(=O)N[C@@H](CC(C)C)C(N)=O [SP-139] (Ac-FIDE[S5]TL[Nle][S5]LVIE[Nle]AL-NH2; staple 5-9)
IC50 [1]: 400 to 700 nM | 18 h Avg % max inhibition at top conc (HIF Rptr-24 hrs normoxia) (μM) [2]: +++ (≤25 but <50: +++) | EC50 [2]: > 30 µM | Viability 1% FBS AVG (MTT V3-24 hr Normoxia) (μM) [3]: ++ (≤5 but <15: ++)

B1: SP-9 (peptide)
peptide: Ac-AIDEEVL[Nle][S5]LVI[S5][Nle]ALDRI-NH2
modifications: staple 9-13
SMILES: CCCC[C@H](NC(=O)[C@H](CC(C)C)NC(=O)[C@@H](NC(=O)[C@H](CCC(=O)O)NC(=O)[C@H](CCC(=O)O)NC(=O)[C@H](CC(=O)O)NC(=O)[C@@H](NC(=O)[C@H](C)NC(C)=O)[C@@H](C)CC)C(C)C)C(=O)N[C@@]1(C)CCCC=CCCC[C@@](C)(C(=O)N[C@@H](CCCC)C(=O)N[C@@H](C)C(=O)N[C@@H](CC(C)C)C(=O)N[C@@H](CC(=O)O)C(=O)N[C@@H](CCCNC(=N)N)C(=O)N[C@H](C(N)=O)[C@@H](C)CC)NC(=O)[C@H]([C@@H](C)CC)NC(=O)[C@H](C(C)C)NC(=O)[C@H](CC(C)C)NC1=O
IC50 [4]: > 0.7 µM

B2: SP-10 (peptide)
peptide: Ac-FADEEVL[Nle][S5]LVI[S5][Nle]ALDRI-NH2
modifications: staple 9-13
SMILES: CCCC[C@H](NC(=O)[C@H](CC(C)C)NC(=O)[C@@H](NC(=O)[C@H](CCC(=O)O)NC(=O)[C@H](CCC(=O)O)NC(=O)[C@H](CC(=O)O)NC(=O)[C@H](C)NC(=O)[C@H](Cc1ccccc1)NC(C)=O)C(C)C)C(=O)N[C@@]1(C)CCCC=CCCC[C@@](C)(C(=O)N[C@@H](CCCC)C(=O)N[C@@H](C)C(=O)N[C@@H](CC(C)C)C(=O)N[C@@H](CC(=O)O)C(=O)N[C@@H](CCCNC(=N)N)C(=O)N[C@H](C(N)=O)[C@@H](C)CC)NC(=O)[C@H]([C@@H](C)CC)NC(=O)[C@H](C(C)C)NC(=O)[C@H](CC(C)C)NC1=O
IC50 [4]: > 0.7 µM

Second part, led by results:

IC50 [1]: 200 to 400 nM | EC50 [2]: 15 to 30 µM
Molecule: CCCC[C@H](NC(=O)[C@H](CC(C)C)NC(=O)[C@@H](NC(=O)[C@H](CCC(=O)O)NC(=O)[C@H](CCC(=O)O)NC(=O)[C@H](CC(=O)O)NC(=O)[C@@H](NC(=O)[C@H](CC(N)=O)NC(=O)[C@@H](NC(=O)[C@H](CCC(N)=O)NC(=O)[C@]1(C)CCCC=CCCC[C@](C)(NC(=O)[C@H](CC(C)C)NC(=O)[C@H](CCC(=O)O)NC(=O)[C@H](CCC(=O)O)NC(=O)CNC(=O)[C@H](CCC(N)=O)NC(=O)[C@H](CC(C)C)NC(=O)[C@H](CC(C)C)NC(C)=O)C(=O)N[C@@H](CCCNC(=N)N)C(=O)N[C@@H](C)C(=O)N[C@@H](CC(C)C)C(=O)N1)C(C)C)[C@@H](C)CC)C(C)C)C(=O)N[C@@]1(C)CCCC=CCCC[C@@](C)(C(=O)N[C@@H](CCCC)C(=O)NCC(N)=O)NC(=O)[C@H]([C@@H](C)CC)NC(=O)[C@H](C(C)C)NC(=O)[C@H](CC(C)C)NC1=O [SP-308] (Ac-LLQGEEL[S5]RAL[S5]QVNIDEEVL[Nle][S5]LVI[S5][Nle]G-NH2; staple 8-12, 23-27)
18 h Avg % max inhibition at top conc (HIF Rptr-24 hrs normoxia) (μM) [2]: ++++ (≥50: ++++) | Viability 1% FBS AVG (MTT V3-24 hr Normoxia) (μM) [3]: ++++ (≥30: ++++)

IC50 [1]: 400 to 700 nM | EC50 [2]: > 30 µM
Molecule: CC[C@H](C)[C@H](NC(=O)[C@H](Cc1ccccc1)NC(C)=O)C(=O)N[C@@H](CC(=O)O)C(=O)N[C@@H](CCC(=O)O)C(=O)N[C@@H](CCC(=O)O)C(=O)N[C@H](C(=O)N[C@@H](CC(C)C)C(=O)N[C@@H](CCSC)C(=O)N[C@@]1(C)CCCC=CCCC[C@@](C)(C(=O)N[C@@H](CCSC)C(=O)N[C@@H](C)C(=O)N[C@@H](Cc2ccccc2)C(N)=O)NC(=O)[C@H]([C@@H](C)CC)NC(=O)[C@H](C(C)C)NC(=O)[C@H](CC(C)C)NC1=O)C(C)C [SP-226] (Ac-FIDEEVLM[S5]LVI[S5]MAF-NH2; staple 9-13)
18 h Avg % max inhibition at top conc (HIF Rptr-24 hrs normoxia) (μM) [2]: ++ (≤10 but <25: ++) | Viability 1% FBS AVG (MTT V3-24 hr Normoxia) (μM) [3]: ++++ (≥30: ++++)

IC50 [1]: > 700 nM | EC50 [2]: > 30 µM
Molecule: CC[C@H](C)[C@H](NC(=O)[C@H](CCCNC(=N)N)NC(=O)[C@H](CC(N)=O)NC(=O)[C@H](CC(C)C)NC(=O)[C@H](C)NC(=O)[C@H](CCSC)NC(=O)[C@]1(C)CCCC=CCCC[C@](C)(NC(=O)[C@H](CCSC)NC(=O)[C@H](CC(C)C)NC(=O)[C@@H](NC(=O)[C@H](C)NC(=O)[C@H](CCC(N)=O)NC(=O)[C@H](CC(=O)O)NC(=O)[C@@H](NC(=O)[C@H](Cc2ccccc2)NC(C)=O)[C@@H](C)CC)C(C)C)C(=O)N[C@@H](CC(C)C)C(=O)N[C@@H](C(C)C)C(=O)N[C@@H]([C@@H](C)CC)C(=O)N1)C(N)=O [SP-270] (Ac-FIDQAVLM[S5]LVI[S5]MALNRI-NH2; staple 9-13)
18 h Avg % max inhibition at top conc (HIF Rptr-24 hrs normoxia) (μM) [2]: ++ (≤10 but <25: ++) | Viability 1% FBS AVG (MTT V3-24 hr Normoxia) (μM) [3]: ++++ (≥30: ++++)
